# In patent US7189679B2, “Herbicidal 3-amino-2-thiomethylbenzoylpyrazoles” (Bayer CropScience GmbH, priority 2004, dated 2007):
# Experiments:
# Assay type in all cases: in vivo
# [1] = system: Echinochloa crus-galli; test: Crop plant tolerance test, action against weed plants; conditions: 100 g/ha, visual scoring four to five weeks after application
# Protocol: (§1) Seeds of mono- and dicotyledonous weed plants are placed in sandy loam in cardboard pots, covered with soil and grown in the greenhouse under good growth conditions. Two to three weeks after sowing, the test plants are treated at the three-leaf stage. The compounds according to the invention, formulated as wettable powders or as emulsifiable concentrates, are sprayed at various dosages onto the surface of the green plant parts at an application rate of 600 to 800 l of water per ha (converted). After the test plants have been left to stand in the greenhouse for 3 to 4 weeks under optimal growth conditions, the effect of the compounds is scored.
# (§2) In further greenhouse experiments, seeds of barley and of monocotyledonous and dicotyledonous weed plants are placed in sandy loam, covered with soil and placed in the greenhouse until the plants have developed two to three true leaves. Then they are treated with the compounds of the formula (I) according to the invention, as described above in section 2.
# [2] = system: Cyperus serotinus; test: as above; conditions: 100 g/ha, visual scoring four to five weeks after application
# Protocol: as §1, with “After the test plants have been left to stand in the greenhouse for 3 to 4 weeks under optimal growth conditions, the effect of the compounds is scored.” left out
# as §2
# [3] = system: Sagittaria pygmaea; test: as above; conditions: 100 g/ha, visual scoring four to five weeks after application
# Protocol: as §1, with “After the test plants have been left to stand in the greenhouse for 3 to 4 weeks under optimal growth conditions, the effect of the compounds is scored.” left out
# as §2
# [4] = system: Scirpus juncoides; test: as above; conditions: 100 g/ha, visual scoring four to five weeks after application
# Protocol: as §1, with “After the test plants have been left to stand in the greenhouse for 3 to 4 weeks under optimal growth conditions, the effect of the compounds is scored.” left out
# as §2
# [5] = system: rice; test: Crop plant tolerance test, damage to crop plant; conditions: 100 g/ha, visual scoring four to five weeks after application
# [6] = system: Amaranthus retroflexus; test: Post-emergence herbicidal action against weed plants; conditions: three-leaf stage, 320 g/ha, scored after 3 to 4 weeks
# Protocol: as §1
# [7] = system: Chenopodium album; test: as above; conditions: three-leaf stage, 320 g/ha, scored after 3 to 4 weeks
# Protocol: as §1
# [8] = system: Echinochloa crus-galli; test: as above; conditions: three-leaf stage, 320 g/ha, scored after 3 to 4 weeks
# Protocol: as §1
# [9] = system: Fallopia convolvulus; test: as above; conditions: three-leaf stage, 320 g/ha, scored after 3 to 4 weeks
# Protocol: as §1
# [10] = system: Setaria viridis; test: as above; conditions: three-leaf stage, 320 g/ha, scored after 3 to 4 weeks
# Protocol: as §1
# [11] = system: Sinapis arvensis; test: as above; conditions: three-leaf stage, 320 g/ha, scored after 3 to 4 weeks
# Protocol: as §1
# [12] = system: Stellaria media; test: as above; conditions: three-leaf stage, 320 g/ha, scored after 3 to 4 weeks
# Protocol: as §1
Compound,action against Echinochloa crus-galli [1],action against Cyperus serotinus [2],action against Sagittaria pygmaea [3],action against Scirpus juncoides [4],damage to the crop plant rice [5],activity against Amaranthus retroflexus [6],activity against Chenopodium album [7],activity against Echinochloa crus-galli [8],activity against Fallopia convolvulus [9],activity against Setaria viridis [10],activity against Sinapis arvensis [11],activity against Stellaria media [12]
CCn1ncc(C(=O)c2ccc(Br)c(N)c2CS(C)(=O)=O)c1O [compound 6],at least 95%,at least 95%,at least 95%,at least 95%,no damage,–,–,–,–,–,–,–
CCCS(=O)(=O)Oc1c(C(=O)c2ccc(Br)c(N)c2CS(C)(=O)=O)c(C)nn1C [compound 4],–,–,–,–,–,at least 90%,at least 90%,at least 90%,at least 90%,at least 90%,at least 90%,at least 90%
